According to US8394788B2, “Phenylsulfoxyoxazole compound inhibitors of urea transporters” (The Regents of the University of California, priority 2006, dated 2013):

Biological target: T1, UT-B (Homo sapiens, UniProt Q13336)
T1 sequence (Q13336 1-389): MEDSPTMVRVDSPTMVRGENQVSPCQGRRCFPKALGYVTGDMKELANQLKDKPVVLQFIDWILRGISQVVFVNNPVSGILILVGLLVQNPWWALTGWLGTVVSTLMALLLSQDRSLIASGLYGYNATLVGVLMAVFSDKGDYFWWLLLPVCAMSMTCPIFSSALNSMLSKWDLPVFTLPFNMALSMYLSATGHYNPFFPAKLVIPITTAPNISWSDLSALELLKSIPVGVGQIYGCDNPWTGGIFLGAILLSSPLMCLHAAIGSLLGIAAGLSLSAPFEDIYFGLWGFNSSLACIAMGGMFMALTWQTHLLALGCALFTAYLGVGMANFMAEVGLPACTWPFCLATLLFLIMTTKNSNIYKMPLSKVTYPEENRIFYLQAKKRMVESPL
Test: RBC lysis assay (human RBCs, acetamide-loaded)
Settings: not given
With `NC(=O)CSc1oc(-c2ccccc2)nc1S(=O)(=O)c1ccc(Cl)cc1` [ureainh-102, 2-(4-(4-chlorophenylsulfonyl)-2-phenyloxazol-5-ylthio)acetamide] the EC50 was 0.04 µM. `Cc1ccc(S(=O)(=O)c2nc(-c3ccccc3)oc2SCC(N)=O)cc1` [ureainh-103, 2-(2-phenyl-4-tosyloxazol-5-ylthio)acetamide] showed an EC50 of 0.1 µM. Work on `NC(=O)CSc1oc(-c2ccccc2)nc1S(=O)(=O)c1ccccc1` [ureainh-104, 2-(2-phenyl-4-(phenylsulfonyl)oxazol-5-ylthio)acetamide] yielded an EC50 of 1 µM. For `Cc1ccc(S(=O)(=O)c2nc(-c3ccc(F)cc3)oc2SCC(N)=O)cc1` [ureainh-105, 2-(2-(4-fluorophenyl)-4-tosyloxazol-5-ylthio)acetamide], the EC50 was 0.1 µM. `NC(=O)CSc1oc(-c2ccc(F)cc2)nc1S(=O)(=O)c1ccc(Cl)cc1` [ureainh-106, 2-(4-(4-chlorophenylsulfonyl)-2-(4-fluorophenyl)oxazol-5-ylthio)acetamide] showed an EC50 of 0.2 µM. For `NC(=O)CSc1oc(-c2ccc(F)cc2)nc1S(=O)(=O)c1ccc(F)cc1` [ureainh-107, 2-(2-(4-fluorophenyl)-4-(4-fluorophenylsulfonyl)oxazol-5-ylthio)acetamide], the EC50 was 6 µM. For `NC(=O)CSc1oc(-c2ccc(F)cc2)nc1S(=O)(=O)c1ccccc1` [ureainh-108, 2-(2-(4-fluorophenyl)-4-(phenylsulfonyl)oxazol-5-ylthio)acetamide], the EC50 was 15 µM. In the case of `Cc1ccc(-c2nc(S(=O)(=O)c3ccc(Br)cc3)c(SCC(N)=O)o2)cc1` [ureainh-109, 2-(4-(4-bromophenylsulfonyl)-2-p-tolyloxazol-5-ylthio)acetamide], the EC50 is reported as 0.2 µM. `Cc1ccc(-c2nc(S(=O)(=O)c3ccc(C)cc3)c(SCC(N)=O)o2)cc1` [ureainh-110, 2-(2-p-tolyl-4-tosyloxazol-5-ylthio)acetamide] showed an EC50 of 1 µM. Compound `Cc1ccc(-c2nc(S(=O)(=O)c3ccc(Cl)cc3)c(SCC(N)=O)o2)cc1` [ureainh-111, 2-(4-(4-chlorophenylsulfonyl)-2-p-tolyloxazol-5-ylthio)acetamide] has an EC50 of 1 µM. With `Cc1ccc(-c2nc(S(=O)(=O)c3ccccc3)c(SCC(N)=O)o2)cc1` [ureainh-112, 2-(4-(phenylsulfonyl)-2-p-tolyloxazol-5-ylthio)acetamide] the EC50 was 15 µM. With `NC(=O)CSc1oc(-c2cccs2)nc1S(=O)(=O)c1ccc(Cl)cc1` [ureainh-113, 2-(4-(4-chlorophenylsulfonyl)-2-(thiophen-2-yl)oxazol-5-ylthio)acetamide] the EC50 was 0.02 µM. `Cc1ccc(S(=O)(=O)c2nc(-c3cccs3)oc2SCC(N)=O)cc1` [ureainh-114, 2-(2-(thiophen-2-yl)-4-tosyloxazol-5-ylthio)acetamide] showed an EC50 of 0.5 µM. `NC(=O)CSc1oc(-c2cccs2)nc1S(=O)(=O)c1ccc(F)cc1` [ureainh-115, 2-(4-(4-fluorophenylsulfonyl)-2-(thiophen-2-yl)oxazol-5-ylthio)acetamide] showed an EC50 of 0.6 µM. Work on `NC(=O)CSc1oc(-c2cccs2)nc1S(=O)(=O)c1ccccc1` [ureainh-116, 2-(4-(phenylsulfonyl)-2-(thiophen-2-yl)oxazol-5-ylthio)acetamide] yielded an EC50 of 1 µM. `NC(=O)CSc1oc(-c2ccco2)nc1S(=O)(=O)c1ccc(Cl)cc1` [ureainh-117, 2-(4-(4-chlorophenylsulfonyl)-2-(furan-2-yl)oxazol-5-ylthio)acetamide] showed an EC50 of 0.1 µM. Compound `NC(=O)CSc1oc(-c2ccco2)nc1S(=O)(=O)c1ccc(Br)cc1` [ureainh-118, 2-(4-(4-bromophenylsulfonyl)-2-(furan-2-yl)oxazol-5-ylthio)acetamide] has an EC50 of 0.2 µM. In the case of `Cc1ccc(S(=O)(=O)c2nc(-c3ccco3)oc2SCC(N)=O)cc1` [ureainh-119, 2-(2-(furan-2-yl)-4-tosyloxazol-5-ylthio)acetamide], the EC50 is reported as 1 µM. Work on `O=S(=O)(c1ccc(Cl)cc1)c1nc(-c2ccccc2F)oc1NCc1ccccc1` [ureainh-120, N-benzyl-4-(4-chlorophenylsulfonyl)-2-(2-fluorophenyl)oxazol-5-amine] yielded an EC50 of 1 µM. `O=C(CSc1oc(-c2ccccc2)nc1S(=O)(=O)c1ccc(Br)cc1)NCc1ccco1` [ureainh-121, 2-(4-(4-bromophenylsulfonyl)-2-phenyloxazol-5-ylthio)-N-(furan-2-ylmethyl)acetamide] showed an EC50 of 4 µM. Compound `O=C(CSc1oc(-c2ccccc2)nc1S(=O)(=O)c1ccc(Cl)cc1)NCc1ccco1` [ureainh-122, 2-(4-(4-chlorophenylsulfonyl)-2-phenyloxazol-5-ylthio)-N-(furan-2-ylmethyl)acetamide] has an EC50 of 15 µM. For `CN(C)c1oc(-c2ccccc2Cl)nc1S(=O)(=O)c1ccccc1` [ureainh-123, 2-(2-chlorophenyl)-N,N-dimethyl-4-(phenylsulfonyl)oxazol-5-amine], the EC50 was 5 µM. Compound `O=S(=O)(c1ccccc1)c1nc(-c2ccccc2F)oc1N1CCOCC1` [ureainh-124, 4-(2-(2-fluorophenyl)-4-(phenylsulfonyl)oxazol-5-yl)morpholine] has an EC50 of 7 µM. Work on `Cc1ccc(S(=O)(=O)c2nc(-c3ccccc3Cl)oc2N2CCOCC2)cc1` [ureainh-125, 4-(2-(2-chlorophenyl)-4-tosyloxazol-5-yl)morpholine] yielded an EC50 of 11 µM. Compound `COc1ccccc1-c1nc(S(=O)(=O)c2ccccc2)c(N2CCCCCC2)o1` [ureainh-126, 5-(azepan-1-yl)-2-(2-methoxyphenyl)-4-(phenylsulfonyl)oxazole] has an EC50 of 10 µM. `Cc1ccc(-c2nc(S(=O)(=O)c3ccccc3)c(N3CCCCCC3)o2)cc1` [ureainh-127, 5-(azepan-1-yl)-4-(phenylsulfonyl)-2-p-tolyloxazole] gave an EC50 of 10 µM. With `O=S(=O)(c1ccccc1)c1nc(-c2ccc(F)cc2)oc1N1CCCCCC1` [ureainh-128, 5-(azepan-1-yl)-2-(4-fluorophenyl)-4-(phenylsulfonyl)oxazole] the EC50 was 10 µM. With `CSc1oc(-c2ccco2)nc1S(=O)(=O)c1ccc(Cl)cc1` [ureainh-129, 4-(4-chlorophenylsulfonyl)-2-(furan-2-yl)-5-(methylthio)oxazole] the EC50 was 20 µM. `CSc1[nH]c(-c2ccc(C)cc2)nc1S(=O)(=O)c1ccccc1` [ureainh-130, 5-(methylthio)-4-(phenylsulfonyl)-2-p-tolyl-1H-imidazole] showed an EC50 of 2 µM. `Cc1ccc(S(=O)(=O)c2nc(-c3ccccc3)[nH]c2S)cc1` [ureainh-131, 2-phenyl-4-tosyl-1H-imidazole-5-thiol] gave an EC50 of 6 µM. In the case of `O=C(Sc1[nH]c(-c2ccccc2)nc1S(=O)(=O)c1ccccc1)c1ccccc1` [ureainh-132, S-2-phenyl-4-(phenylsulfonyl)-1H-imidazol-5-yl benzothioate], the EC50 is reported as 7 µM.

Tested on: RBC urea transport
Test: not given
Settings: 23° C.; cited from earlier work
In the case of `CNC(N)=O` [N-methylurea], the apparent affinity is given as “approximately 100 mM”. In the case of `NC(N)=O` [urea], the apparent affinity is listed as “approximately 200 mM”.
